From paper PMC5218480 (PLoS ONE, 2017)

System: MV-4-11 cells
Experiment: Gene expression microarray analysis (Affymetrix PrimeView) and GSEA
Format: cell-based, human
Set-up: RFU PODN (11730768_x_at) / Fold change /veh PODN (11730768_x_at) / RFU LINC00158 (11744669_a_at) / Fold change /veh LINC00158 (11744669_a_at) / RFU DUSP10 (11751237_a_at) / Fold change /veh DUSP10 (11751237_a_at) / RFU ID3 (11757404_x_at) / Fold change /veh ID3 (11757404_x_at) / RFU PLEKHG5 (11737974_s_at) / Fold change /veh PLEKHG5 (11737974_s_at) / RFU LRRC4B (11730491_at) / Fold change /veh LRRC4B (11730491_at) / RFU GIMAP4 (11747438_a_at) / Fold change /veh GIMAP4 (11747438_a_at) / RFU KRT8 (11758183_x_at) / Fold change /veh KRT8 (11758183_x_at) / RFU CNN1 (11734310_a_at) / Fold change /veh CNN1 (11734310_a_at) / RFU VPS37D (11726825_at) / Fold change /veh VPS37D (11726825_at) / RFU C10orf10 (11716522_x_at) / Fold change /veh C10orf10 (11716522_x_at) / RFU KIR2DL2 /// KIR2DL4 /// KIR2DL5A /// KIR2DL5B /// KIR2DS1 /// KIR2DS2 /// KIR2DS3 /// KIR2DS4 /// KIR3DL3 /// KIR3DL3 /// KIR3DS1 (11738374_at) / Fold change /veh KIR2DL2 /// KIR2DL4 /// KIR2DL5A /// KIR2DL5B /// KIR2DS1 /// KIR2DS2 /// KIR2DS3 /// KIR2DS4 /// KIR3DL3 /// KIR3DL3 /// KIR3DS1 (11738374_at) / RFU C1QL1 (11718748_at) / Fold change /veh C1QL1 (11718748_at) / RFU TMPRSS4 (11747572_a_at) / Fold change /veh TMPRSS4 (11747572_a_at) / RFU HAMP (11756126_x_at) / Fold change /veh HAMP (11756126_x_at) / RFU RNFT2 (11725882_a_at) / Fold change /veh RNFT2 (11725882_a_at) / RFU NR4A2 (11747474_a_at) / Fold change /veh NR4A2 (11747474_a_at) / RFU ABCC12 (11746883_a_at) / Fold change /veh ABCC12 (11746883_a_at) / RFU TMEM136 (11760407_x_at) / Fold change /veh TMEM136 (11760407_x_at) / RFU CLDN22 /// WWC2 (11732394_at) / Fold change /veh CLDN22 /// WWC2 (11732394_at) / RFU HLA-DPB1 (11760878_x_at) / Fold change /veh HLA-DPB1 (11760878_x_at) / RFU SPINT1 (11716480_a_at) / Fold change /veh SPINT1 (11716480_a_at) / RFU GAP43 (11754022_s_at) / Fold change /veh GAP43 (11754022_s_at) / RFU A4GNT (11735810_at) / Fold change /veh A4GNT (11735810_at) / RFU PRB3 (11715151_x_at) / Fold change /veh PRB3 (11715151_x_at) / RFU TUBB4B (11761932_at) / Fold change /veh TUBB4B (11761932_at) / RFU CAPN14 (11732068_a_at) / Fold change /veh CAPN14 (11732068_a_at) / RFU TMCC2 (11721928_a_at) / Fold change /veh TMCC2 (11721928_a_at) / RFU IRGQ (11745062_a_at) / Fold change /veh IRGQ (11745062_a_at) / RFU FAM174B (11720279_a_at) / Fold change /veh FAM174B (11720279_a_at) / RFU TMPRSS4 (11748680_a_at) / Fold change /veh TMPRSS4 (11748680_a_at) / RFU FAM212B (11763350_a_at) / Fold change /veh FAM212B (11763350_a_at) / RFU PLEKHG5 (11743358_a_at) / Fold change /veh PLEKHG5 (11743358_a_at) / RFU ZSCAN30 (11745921_a_at) / Fold change /veh ZSCAN30 (11745921_a_at) / RFU CMKLR1 (11741424_a_at) / Fold change /veh CMKLR1 (11741424_a_at) / RFU LOC101060620 /// MAPK8IP1 (11723275_at) / Fold change /veh LOC101060620 /// MAPK8IP1 (11723275_at) / RFU SPTSSB (11747773_x_at) / Fold change /veh SPTSSB (11747773_x_at) / RFU PRSS12 (11739890_at) / Fold change /veh PRSS12 (11739890_at) / RFU BIN1 (11741810_x_at) / Fold change /veh BIN1 (11741810_x_at) / RFU WNT11 (11732464_a_at) / Fold change /veh WNT11 (11732464_a_at) / RFU C10orf10 (11716521_a_at) / Fold change /veh C10orf10 (11716521_a_at) / RFU C5orf56 (11738089_at) / Fold change /veh C5orf56 (11738089_at) / RFU CYB561 (11721691_x_at) / Fold change /veh CYB561 (11721691_x_at) / RFU ANKRD19P (11752326_a_at) / Fold change /veh ANKRD19P (11752326_a_at) / RFU OR2T12 /// OR2T33 /// OR2T8 (11738714_s_at) / Fold change /veh OR2T12 /// OR2T33 /// OR2T8 (11738714_s_at) / RFU VCAN (11748164_a_at) / Fold change /veh VCAN (11748164_a_at) / RFU JSRP1 (11732532_at) / Fold change /veh JSRP1 (11732532_at) / RFU KRTAP10-11 (11738290_x_at) / Fold change /veh KRTAP10-11 (11738290_x_at) / RFU MYO3A (11730013_a_at) / Fold change /veh MYO3A (11730013_a_at) / RFU EBF3 (11725865_a_at) / Fold change /veh EBF3 (11725865_a_at) / RFU CAMK2N1 (11719241_x_at) / Fold change /veh CAMK2N1 (11719241_x_at) / RFU C5orf56 (11738088_a_at) / Fold change /veh C5orf56 (11738088_a_at) / RFU OLFML3 (11715873_a_at) / Fold change /veh OLFML3 (11715873_a_at) / RFU LOC100653217 /// NTM (11731650_a_at) / Fold change /veh LOC100653217 /// NTM (11731650_a_at) / RFU MAPK11 (11762145_a_at) / Fold change /veh MAPK11 (11762145_a_at) / RFU FIZ1 (11724087_x_at) / Fold change /veh FIZ1 (11724087_x_at) / RFU OASL (11726364_x_at) / Fold change /veh OASL (11726364_x_at) / RFU SOX15 (11748057_x_at) / Fold change /veh SOX15 (11748057_x_at) / RFU CD79A (11719716_a_at) / Fold change /veh CD79A (11719716_a_at) / RFU HIST1H1D (11736915_at) / Fold change /veh HIST1H1D (11736915_at) / RFU CASKIN2 (11723855_a_at) / Fold change /veh CASKIN2 (11723855_a_at) / RFU LOC730098 (11760151_x_at) / Fold change /veh LOC730098 (11760151_x_at) / RFU OR4N2 (11742367_at) / Fold change /veh OR4N2 (11742367_at) / RFU PRRT2 (11749266_a_at) / Fold change /veh PRRT2 (11749266_a_at) / RFU SNX32 (11753110_a_at) / Fold change /veh SNX32 (11753110_a_at) / RFU CDHR5 (11726645_a_at) / Fold change /veh CDHR5 (11726645_a_at) / RFU RCAN1 (11760418_a_at) / Fold change /veh RCAN1 (11760418_a_at) / RFU FAM167A (11723789_a_at) / Fold change /veh FAM167A (11723789_a_at) / RFU FAM26E (11764081_at) / Fold change /veh FAM26E (11764081_at) / RFU ISYNA1 (11749810_s_at) / Fold change /veh ISYNA1 (11749810_s_at) / RFU ACY1 (11761880_at) / Fold change /veh ACY1 (11761880_at) / RFU 11764098_at / Fold change /veh 11764098_at / RFU SAMD14 (11745864_x_at) / Fold change /veh SAMD14 (11745864_x_at) / RFU NPB (11741838_a_at) / Fold change /veh NPB (11741838_a_at) / RFU TMPRSS6 (11731388_a_at) / Fold change /veh TMPRSS6 (11731388_a_at) / RFU KRTAP10-2 (11738614_at) / Fold change /veh KRTAP10-2 (11738614_at) / RFU ARHGAP8 /// PRR5-ARHGAP8 (11727945_x_at) / Fold change /veh ARHGAP8 /// PRR5-ARHGAP8 (11727945_x_at) / RFU KRTAP5-7 /// NADSYN1 (11734609_at) / Fold change /veh KRTAP5-7 /// NADSYN1 (11734609_at) / RFU RASL12 (11751679_a_at) / Fold change /veh RASL12 (11751679_a_at) / RFU CDKN2B (11736163_a_at) / Fold change /veh CDKN2B (11736163_a_at) / RFU PRF1 (11729649_at) / Fold change /veh PRF1 (11729649_at) / RFU, ZNF638 /// ZNF638-IT1 / Fold change vs veh, ZNF638 /// ZNF638-IT1 / RFU, PANK3 / Fold change vs veh, PANK3 / RFU, SH3YL1 / Fold change vs veh, SH3YL1 / RFU, ZEB2 / Fold change vs veh, ZEB2 / RFU, NRIP1 / Fold change vs veh, NRIP1 / RFU, PTTG1IP / Fold change vs veh, PTTG1IP / RFU, CAPN2 / Fold change vs veh, CAPN2 / RFU, MED14 / Fold change vs veh, MED14 / RFU, SNORA58 / Fold change vs veh, SNORA58 / RFU, C1orf63 / Fold change vs veh, C1orf63 / RFU, LRRFIP1 / Fold change vs veh, LRRFIP1 / RFU, NDUFAF7 / Fold change vs veh, NDUFAF7 / RFU, SLC12A2 / Fold change vs veh, SLC12A2 / RFU, IBTK / Fold change vs veh, IBTK / RFU, ESF1 / Fold change vs veh, ESF1 / Fold change vs veh, TMEM50B / RFU, TAOK1 / Fold change vs veh, TAOK1 / RFU, ACBD3 / Fold change vs veh, ACBD3 / RFU, TMA16 / Fold change vs veh, TMA16 / RFU, RWDD3 / Fold change vs veh, RWDD3 / RFU, BCAT1 / Fold change vs veh, BCAT1 / RFU, EDEM3 / Fold change vs veh, EDEM3 / RFU, TMEM33 / Fold change vs veh, TMEM33 / RFU, WDR75 / Fold change vs veh, WDR75 / RFU, AHCTF1 / Fold change vs veh, AHCTF1 / RFU, TFRC / Fold change vs veh, TFRC / RFU, ZDHHC17 / Fold change vs veh, ZDHHC17 / RFU, NOM1 / Fold change vs veh, NOM1 / RFU, ARL8B / Fold change vs veh, ARL8B / RFU, ZBTB11 / Fold change vs veh, ZBTB11 / RFU, TAMM41 / Fold change vs veh, TAMM41 / RFU, KIAA1704 /// LOC100996395 / Fold change vs veh, KIAA1704 /// LOC100996395 / RFU, ING1 / Fold change vs veh, ING1 / RFU, TRMT61B / Fold change vs veh, TRMT61B / RFU, FUBP3 / Fold change vs veh, FUBP3 / RFU, TP53 / Fold change vs veh, TP53 / RFU, TNKS2 / Fold change vs veh, TNKS2 / RFU, ZFP14 / Fold change vs veh, ZFP14 / RFU, ACTR2 / Fold change vs veh, ACTR2 / RFU, PPP3R1 / Fold change vs veh, PPP3R1 / RFU, PIK3R1 / Fold change vs veh, PIK3R1 / RFU, HNRNPA1 / Fold change vs veh, HNRNPA1 / RFU, RNF170 / Fold change vs veh, RNF170 / RFU, ZNF28 / Fold change vs veh, ZNF28 / RFU, RNGTT / Fold change vs veh, RNGTT / RFU, OGT / Fold change vs veh, OGT / RFU, BRD1 / Fold change vs veh, BRD1 / RFU, MARS / Fold change vs veh, MARS / RFU, ZNF655 / Fold change vs veh, ZNF655 / RFU, FAHD1 / Fold change vs veh, FAHD1 / RFU, BDP1 / Fold change vs veh, BDP1 / RFU, LRRCC1 / Fold change vs veh, LRRCC1 / RFU, ARID1A / Fold change vs veh, ARID1A / RFU, ZNF146 / Fold change vs veh, ZNF146 / RFU, ZNF330 / Fold change vs veh, ZNF330 / RFU, GPN3 / Fold change vs veh, GPN3 / RFU, C9orf123 / Fold change vs veh, C9orf123 / RFU, N4BP2L2 / Fold change vs veh, N4BP2L2 / RFU, ARFIP1 / Fold change vs veh, ARFIP1 / RFU, FAM179B / Fold change vs veh, FAM179B / RFU, BCL10 / Fold change vs veh, BCL10 / RFU, UHRF1BP1L / Fold change vs veh, UHRF1BP1L / RFU, BET1 / Fold change vs veh, BET1 / RFU, CNOT2 / Fold change vs veh, CNOT2 / RFU, ZNF268 / Fold change vs veh, ZNF268 / Fold change vs veh, ZNF507 / RFU, DGCR2 / Fold change vs veh, DGCR2 / RFU, WDSUB1 / Fold change vs veh, WDSUB1 / Fold change vs veh, HSP90B1 /// MIR3652 / RFU, ADSS / Fold change vs veh, ADSS / RFU, GK / Fold change vs veh, GK / RFU, ZNF148 / Fold change vs veh, ZNF148 / RFU, TAF9 / Fold change vs veh, TAF9 / RFU, SLC1A5 / Fold change vs veh, SLC1A5 / RFU, SLMO2 / Fold change vs veh, SLMO2 / RFU, ABCC4 / Fold change vs veh, ABCC4 / RFU, LOC101060439 /// RAP1B / Fold change vs veh, LOC101060439 /// RAP1B / RFU, RFX7 / Fold change vs veh, RFX7 / RFU, GTPBP10 / Fold change vs veh, GTPBP10 / RFU, CNEP1R1 / Fold change vs veh, CNEP1R1 / RFU, BIVM-ERCC5 /// ERCC5 / Fold change vs veh, BIVM-ERCC5 /// ERCC5 / RFU, ILF3 / Fold change vs veh, ILF3 / RFU 11762660_at / Fold change /veh 11762660_at / RFU VCAN (11757783_s_at) / Fold change /veh VCAN (11757783_s_at) / RFU DDX43 (11728927_at) / Fold change /veh DDX43 (11728927_at) / RFU KRT8 (11758188_x_at) / Fold change /veh KRT8 (11758188_x_at) / RFU NKD1 (11759106_at) / Fold change /veh NKD1 (11759106_at) / RFU SRD5A1 (11742802_a_at) / Fold change /veh SRD5A1 (11742802_a_at) / RFU TPSAB1 /// TPSB2 (11721975_s_at) / Fold change /veh TPSAB1 /// TPSB2 (11721975_s_at) / RFU GSTM3 (11746129_a_at) / Fold change /veh GSTM3 (11746129_a_at) / RFU IL23R (11737362_x_at) / Fold change /veh IL23R (11737362_x_at) / RFU TMEM51 (11727254_a_at) / Fold change /veh TMEM51 (11727254_a_at) / RFU PIWIL2 (11732686_x_at) / Fold change /veh PIWIL2 (11732686_x_at) / RFU ORM1 (11744905_x_at) / Fold change /veh ORM1 (11744905_x_at) / RFU CCDC152 (11743942_at) / Fold change /veh CCDC152 (11743942_at) / RFU ECM1 (11717891_a_at) / Fold change /veh ECM1 (11717891_a_at) / RFU IL23R (11748794_a_at) / Fold change /veh IL23R (11748794_a_at) / RFU TNFAIP8L3 (11732012_x_at) / Fold change /veh TNFAIP8L3 (11732012_x_at) / RFU MBOAT4 (11741988_at) / Fold change /veh MBOAT4 (11741988_at) / RFU 11764193_at / Fold change /veh 11764193_at / RFU TMEM53 (11763286_at) / Fold change /veh TMEM53 (11763286_at) / RFU MAGEB2 (11727129_at) / Fold change /veh MAGEB2 (11727129_at) / RFU TMEM200A (11744735_a_at) / Fold change /veh TMEM200A (11744735_a_at) / RFU CCDC152 (11751479_a_at) / Fold change /veh CCDC152 (11751479_a_at) / RFU FAM211A (11726209_a_at) / Fold change /veh FAM211A (11726209_a_at) / RFU RGS16 (11746705_a_at) / Fold change /veh RGS16 (11746705_a_at) / RFU VCAN (11755009_s_at) / Fold change /veh VCAN (11755009_s_at) / RFU RHOB (11743442_s_at) / Fold change /veh RHOB (11743442_s_at) / RFU RGS16 (11720943_a_at) / Fold change /veh RGS16 (11720943_a_at) / RFU RGS16 (11720944_at) / Fold change /veh RGS16 (11720944_at) / RFU, VPS4B / Fold change vs veh, VPS4B / RFU, CREB1 / Fold change vs veh, CREB1 / RFU, DNAJC13 / Fold change vs veh, DNAJC13 / RFU, GNAQ / Fold change vs veh, GNAQ / RFU, CDK5R1 / Fold change vs veh, CDK5R1 / RFU, ZRANB3 / Fold change vs veh, ZRANB3 / RFU, CUL4A / Fold change vs veh, CUL4A / RFU, CCNY / Fold change vs veh, CCNY / RFU, UFL1 / Fold change vs veh, UFL1 / RFU, COG3 / Fold change vs veh, COG3 / RFU, DIAPH2 / Fold change vs veh, DIAPH2 / RFU, SKA2 / Fold change vs veh, SKA2 / RFU, AFF3 / Fold change vs veh, AFF3 / RFU, LMF1 / Fold change vs veh, LMF1 / RFU, IPO11 / Fold change vs veh, IPO11 / RFU, DFFB / Fold change vs veh, DFFB / RFU, FOXP1 / Fold change vs veh, FOXP1 / RFU, CARD8 / Fold change vs veh, CARD8 / RFU, STRN3 / Fold change vs veh, STRN3 / RFU, ADK / Fold change vs veh, ADK / RFU, RASSF2 / Fold change vs veh, RASSF2 / RFU, WIPF1 / Fold change vs veh, WIPF1 / RFU, LARP1B / Fold change vs veh, LARP1B / RFU, RASA1 / Fold change vs veh, RASA1 / RFU, RB1 / Fold change vs veh, RB1 / RFU, PPFIA1 / Fold change vs veh, PPFIA1 / RFU, MAT2A / Fold change vs veh, MAT2A / RFU, CCT5 / Fold change vs veh, CCT5 / RFU, WDR92 / Fold change vs veh, WDR92 / RFU, CUX1 / Fold change vs veh, CUX1 / RFU, TTC7A / Fold change vs veh, TTC7A / RFU, TMEM135 / Fold change vs veh, TMEM135 / RFU, DEPTOR / Fold change vs veh, DEPTOR / RFU, CPM / Fold change vs veh, CPM / RFU, DNAJB6 / Fold change vs veh, DNAJB6 / RFU, CACNA2D3 / Fold change vs veh, CACNA2D3 / RFU, DTX4 / Fold change vs veh, DTX4 / RFU, TFCP2 / Fold change vs veh, TFCP2 / RFU, GMCL1 /// GMCL1P1 / Fold change vs veh, GMCL1 /// GMCL1P1 / RFU, AEBP2 / Fold change vs veh, AEBP2 / RFU, SNHG1 /// SNORD22 /// SNORD25 /// SNORD26 /// SNORD27 /// SNORD28 /// SNORD29 /// SNORD31 / Fold change vs veh, SNHG1 /// SNORD22 /// SNORD25 /// SNORD26 /// SNORD27 /// SNORD28 /// SNORD29 /// SNORD31 / Fold change (Aza/veh), C12orf56 (ProbeSet 11735607_a_at) / Fold change (ACY-1035/veh), C12orf56 (ProbeSet 11735607_a_at) / Fold change (Aza/veh), FGFR1OP (ProbeSet 11751329_s_at) / Fold change (ACY-1035/veh), FGFR1OP (ProbeSet 11751329_s_at) / Fold change (Aza/veh), VPS36 (ProbeSet 11739960_a_at) / Fold change (ACY-1035/veh), VPS36 (ProbeSet 11739960_a_at) / RFU SYPL1 (11715823_x_at) / Fold change /veh SYPL1 (11715823_x_at) / RFU IGFBP7 (11715501_s_at) / Fold change /veh IGFBP7 (11715501_s_at) / RFU REEP3 (11722064_at) / Fold change /veh REEP3 (11722064_at) / RFU IGLL1 (11728026_x_at) / Fold change /veh IGLL1 (11728026_x_at): dose or concentration left out as unconfirmed
Conditions: MV-4-11 cells, 48 hours

Which “Fold change /veh RHOB (11743442_s_at)” value does the source give for `Nc1ccc(-c2cccs2)cc1NC(=O)c1ccc2c(c1)cc(C1CC1)n2CCN1CCOCC1` [ACY-1035] here?
Its value is 1.20.
